# Source: US8940742B2, “Heterocyclic compounds and uses thereof” (Infinity Pharmaceuticals, Inc., priority 2012, dated 2015)
# What was measured:
# Assay in all cases: PI3-Kinase Promega ADP-Glo Max assay
# Assay type in all cases: biochemical
# PI3K γ = target: T1, PI3K γ (Homo sapiens, UniProt P48736); details: 40 nM kinase, 3 mM ATP, 500 uM diC8-PtdInsP
# T1 construct: purchased Millipore
# Procedure: Promega ADP-Glo Max assay kit (Cat. No. V7002) was utilized to determine IC50 values for α, β, δ and γ isoforms of human Class I PI3 kinases (Millipore). […] Reactions were incubated at room temperature for 2 hours followed by addition of 25 uL of stop solution. After a 40-minute incubation at room temperature, 50 uL of Promega detection mix was added followed by incubation for 1 hour at room temperature. Plates were then read on Envision plate reader in luminescence mode. Data was converted to % inhibition using the following equation below:
# [formula] where S is the sample luminescence, Pos is a positive control without added PI3K, Neg is the negative control without added compound. Data was then plotted as % inhibition vs compound concentration.
# (§1) Certain compounds provided herein were tested in PI3-Kinase Promega Assay using procedures as described above to determine IC50 values for α, β, δ and/or γ isoforms.
# PI3K β = target: T2, PI3K β (Homo sapiens, UniProt P42338); details: 40 nM kinase, 3 mM ATP, 500 uM diC8-PtdInsP
# T2 construct: purchased Millipore
# T2 sequence (P42338 whole entry): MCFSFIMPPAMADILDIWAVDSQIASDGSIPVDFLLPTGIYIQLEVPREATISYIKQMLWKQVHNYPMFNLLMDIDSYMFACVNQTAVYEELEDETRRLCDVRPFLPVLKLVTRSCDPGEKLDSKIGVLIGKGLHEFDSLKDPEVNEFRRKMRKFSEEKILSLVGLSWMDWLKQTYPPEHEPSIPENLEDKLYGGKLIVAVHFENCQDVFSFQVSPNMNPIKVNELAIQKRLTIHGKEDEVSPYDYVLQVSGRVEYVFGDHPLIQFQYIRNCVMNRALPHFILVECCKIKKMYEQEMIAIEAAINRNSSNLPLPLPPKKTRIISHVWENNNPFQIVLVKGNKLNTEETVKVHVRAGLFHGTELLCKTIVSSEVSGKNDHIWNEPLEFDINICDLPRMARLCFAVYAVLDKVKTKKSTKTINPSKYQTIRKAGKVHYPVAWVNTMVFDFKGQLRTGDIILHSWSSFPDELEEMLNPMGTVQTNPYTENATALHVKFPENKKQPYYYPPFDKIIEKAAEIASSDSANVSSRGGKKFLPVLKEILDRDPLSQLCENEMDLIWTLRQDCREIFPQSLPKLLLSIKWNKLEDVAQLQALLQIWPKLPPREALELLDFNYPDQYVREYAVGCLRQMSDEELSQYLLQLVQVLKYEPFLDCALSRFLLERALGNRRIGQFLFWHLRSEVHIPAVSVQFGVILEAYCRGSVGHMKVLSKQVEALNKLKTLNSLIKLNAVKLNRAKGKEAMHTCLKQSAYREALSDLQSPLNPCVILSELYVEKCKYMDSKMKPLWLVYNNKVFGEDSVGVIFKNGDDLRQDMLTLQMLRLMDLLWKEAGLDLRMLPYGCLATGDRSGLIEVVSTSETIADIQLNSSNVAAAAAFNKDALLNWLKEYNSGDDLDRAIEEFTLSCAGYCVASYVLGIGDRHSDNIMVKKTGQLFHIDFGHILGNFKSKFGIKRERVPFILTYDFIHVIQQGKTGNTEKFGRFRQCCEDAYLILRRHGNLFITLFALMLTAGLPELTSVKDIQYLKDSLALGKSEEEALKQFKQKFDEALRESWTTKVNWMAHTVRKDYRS
# T2 sequence (P27986 whole entry partner): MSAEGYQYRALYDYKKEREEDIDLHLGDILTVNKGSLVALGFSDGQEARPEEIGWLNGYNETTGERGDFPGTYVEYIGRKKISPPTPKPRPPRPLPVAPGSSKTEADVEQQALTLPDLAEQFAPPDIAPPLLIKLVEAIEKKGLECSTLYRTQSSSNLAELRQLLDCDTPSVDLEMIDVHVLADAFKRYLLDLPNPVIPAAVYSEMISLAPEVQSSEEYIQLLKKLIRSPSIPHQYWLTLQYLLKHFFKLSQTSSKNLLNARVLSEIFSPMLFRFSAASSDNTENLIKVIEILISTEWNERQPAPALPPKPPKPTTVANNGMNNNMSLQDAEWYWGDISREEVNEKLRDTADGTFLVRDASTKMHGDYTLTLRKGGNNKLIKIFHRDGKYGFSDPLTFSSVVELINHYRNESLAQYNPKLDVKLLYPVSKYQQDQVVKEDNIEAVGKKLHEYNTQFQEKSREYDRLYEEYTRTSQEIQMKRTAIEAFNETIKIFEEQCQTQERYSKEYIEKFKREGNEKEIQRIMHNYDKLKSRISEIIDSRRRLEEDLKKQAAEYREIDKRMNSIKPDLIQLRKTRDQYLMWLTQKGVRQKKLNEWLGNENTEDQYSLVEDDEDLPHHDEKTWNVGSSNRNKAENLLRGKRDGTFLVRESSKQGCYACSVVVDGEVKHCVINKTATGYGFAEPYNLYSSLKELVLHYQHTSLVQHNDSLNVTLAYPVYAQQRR
# Procedure: (§2) Promega ADP-Glo Max assay kit (Cat. No. V7002) was utilized to determine IC50 values for α, β, δ and γ isoforms of human Class I PI3 kinases (Millipore). Samples of kinase (20 nM α or δ, 40 nM β or γ isoform) were incubated with compound for 15 minutes at room temperature in reaction buffer (15 mM HEPES pH 7.4, 20 mM NaCl, 1 mM EGTA, 0.02% Tween 20, 10 mM MgCl2, 0.2 mg/mL bovine-γ-globulins) followed by addition of ATP/diC8-PtdInsP mixture to give final concentrations of 3 mM ATP and 500 uM diC8-PtdInsP. Reactions were incubated at room temperature for 2 hours followed by addition of 25 uL of stop solution. After a 40-minute incubation at room temperature, 50 uL of Promega detection mix was added followed by incubation for 1 hour at room temperature. Plates were then read on Envision plate reader in luminescence mode. Data was converted to % inhibition using the following equation below:
# (§3) [formula] where S is the sample luminescence, Pos is a positive control without added PI3K, Neg is the negative control without added compound. Data was then plotted as % inhibition vs compound concentration. Data fit to 4 parameter logistic equation to determine IC50 values: […]
# as §1
# PI3K α = target: T3, PI3K α (Homo sapiens, UniProt P42336); details: 20 nM kinase, 3 mM ATP, 500 uM diC8-PtdInsP
# T3 construct: purchased Millipore
# T3 sequence (P42336 whole entry): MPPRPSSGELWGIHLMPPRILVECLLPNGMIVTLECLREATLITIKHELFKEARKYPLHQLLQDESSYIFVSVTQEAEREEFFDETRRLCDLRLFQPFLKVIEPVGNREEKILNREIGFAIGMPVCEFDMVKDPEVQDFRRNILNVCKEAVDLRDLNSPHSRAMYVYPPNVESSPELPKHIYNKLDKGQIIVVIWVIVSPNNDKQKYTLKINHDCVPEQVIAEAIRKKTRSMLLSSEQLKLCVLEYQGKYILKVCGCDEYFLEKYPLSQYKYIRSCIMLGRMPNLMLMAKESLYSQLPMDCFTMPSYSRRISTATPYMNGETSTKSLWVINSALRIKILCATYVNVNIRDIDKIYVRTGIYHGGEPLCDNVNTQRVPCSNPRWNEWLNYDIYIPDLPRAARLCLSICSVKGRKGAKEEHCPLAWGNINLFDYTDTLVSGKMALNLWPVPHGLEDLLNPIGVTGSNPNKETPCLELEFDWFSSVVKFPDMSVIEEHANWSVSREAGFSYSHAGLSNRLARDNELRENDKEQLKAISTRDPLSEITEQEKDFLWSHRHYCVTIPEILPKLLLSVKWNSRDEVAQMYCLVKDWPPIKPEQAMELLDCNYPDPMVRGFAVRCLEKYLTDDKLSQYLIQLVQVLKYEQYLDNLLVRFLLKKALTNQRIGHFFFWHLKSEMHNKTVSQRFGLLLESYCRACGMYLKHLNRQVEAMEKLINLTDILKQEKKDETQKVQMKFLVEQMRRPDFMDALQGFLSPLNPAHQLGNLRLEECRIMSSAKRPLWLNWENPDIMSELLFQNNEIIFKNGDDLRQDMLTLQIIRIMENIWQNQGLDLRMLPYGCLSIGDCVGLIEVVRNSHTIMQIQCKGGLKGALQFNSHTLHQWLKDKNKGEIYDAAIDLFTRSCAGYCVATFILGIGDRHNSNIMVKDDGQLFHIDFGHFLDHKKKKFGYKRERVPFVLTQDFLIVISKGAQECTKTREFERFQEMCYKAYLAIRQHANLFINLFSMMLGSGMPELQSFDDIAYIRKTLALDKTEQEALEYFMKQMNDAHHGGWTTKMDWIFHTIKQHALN
# T3 sequence (P27986 whole entry partner): as the sequence (P27986 whole entry partner) above
# Procedure: as §2, §3, §1
# PI3K δ = target: T4, PI3K δ (Homo sapiens, UniProt O00329); details: 20 nM kinase, 3 mM ATP, 500 uM diC8-PtdInsP
# T4 construct: purchased Millipore
# T4 sequence (O00329 whole entry): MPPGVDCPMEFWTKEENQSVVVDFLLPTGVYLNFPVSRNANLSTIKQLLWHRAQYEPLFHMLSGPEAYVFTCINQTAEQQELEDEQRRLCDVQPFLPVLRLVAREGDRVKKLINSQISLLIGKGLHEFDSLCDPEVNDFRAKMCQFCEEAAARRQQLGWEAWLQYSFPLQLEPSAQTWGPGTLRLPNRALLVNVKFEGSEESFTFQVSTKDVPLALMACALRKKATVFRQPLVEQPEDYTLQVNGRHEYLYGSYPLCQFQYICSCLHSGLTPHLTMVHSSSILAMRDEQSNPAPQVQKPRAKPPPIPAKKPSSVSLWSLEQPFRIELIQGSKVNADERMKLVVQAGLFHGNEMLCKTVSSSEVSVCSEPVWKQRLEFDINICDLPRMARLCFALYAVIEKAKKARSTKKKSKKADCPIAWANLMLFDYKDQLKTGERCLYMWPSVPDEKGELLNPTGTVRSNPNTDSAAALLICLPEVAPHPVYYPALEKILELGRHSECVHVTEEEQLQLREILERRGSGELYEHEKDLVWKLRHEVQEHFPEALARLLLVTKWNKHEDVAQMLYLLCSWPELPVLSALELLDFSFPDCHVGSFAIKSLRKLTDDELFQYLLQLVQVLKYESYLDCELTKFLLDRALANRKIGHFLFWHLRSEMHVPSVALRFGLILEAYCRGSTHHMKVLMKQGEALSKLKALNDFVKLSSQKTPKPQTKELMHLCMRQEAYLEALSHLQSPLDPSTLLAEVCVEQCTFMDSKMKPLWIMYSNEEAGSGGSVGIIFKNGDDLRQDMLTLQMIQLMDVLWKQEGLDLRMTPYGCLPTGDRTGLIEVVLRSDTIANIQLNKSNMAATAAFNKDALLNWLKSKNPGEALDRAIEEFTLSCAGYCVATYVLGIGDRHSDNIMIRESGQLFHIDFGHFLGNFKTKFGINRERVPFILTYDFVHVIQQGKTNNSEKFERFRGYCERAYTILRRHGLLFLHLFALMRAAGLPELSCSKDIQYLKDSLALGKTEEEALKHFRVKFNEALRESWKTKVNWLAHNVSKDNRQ
# T4 sequence (P27986 whole entry partner): as the sequence (P27986 whole entry partner) above
# Procedure: as §2, §3, §1
# T1 sequence (P48736 whole entry): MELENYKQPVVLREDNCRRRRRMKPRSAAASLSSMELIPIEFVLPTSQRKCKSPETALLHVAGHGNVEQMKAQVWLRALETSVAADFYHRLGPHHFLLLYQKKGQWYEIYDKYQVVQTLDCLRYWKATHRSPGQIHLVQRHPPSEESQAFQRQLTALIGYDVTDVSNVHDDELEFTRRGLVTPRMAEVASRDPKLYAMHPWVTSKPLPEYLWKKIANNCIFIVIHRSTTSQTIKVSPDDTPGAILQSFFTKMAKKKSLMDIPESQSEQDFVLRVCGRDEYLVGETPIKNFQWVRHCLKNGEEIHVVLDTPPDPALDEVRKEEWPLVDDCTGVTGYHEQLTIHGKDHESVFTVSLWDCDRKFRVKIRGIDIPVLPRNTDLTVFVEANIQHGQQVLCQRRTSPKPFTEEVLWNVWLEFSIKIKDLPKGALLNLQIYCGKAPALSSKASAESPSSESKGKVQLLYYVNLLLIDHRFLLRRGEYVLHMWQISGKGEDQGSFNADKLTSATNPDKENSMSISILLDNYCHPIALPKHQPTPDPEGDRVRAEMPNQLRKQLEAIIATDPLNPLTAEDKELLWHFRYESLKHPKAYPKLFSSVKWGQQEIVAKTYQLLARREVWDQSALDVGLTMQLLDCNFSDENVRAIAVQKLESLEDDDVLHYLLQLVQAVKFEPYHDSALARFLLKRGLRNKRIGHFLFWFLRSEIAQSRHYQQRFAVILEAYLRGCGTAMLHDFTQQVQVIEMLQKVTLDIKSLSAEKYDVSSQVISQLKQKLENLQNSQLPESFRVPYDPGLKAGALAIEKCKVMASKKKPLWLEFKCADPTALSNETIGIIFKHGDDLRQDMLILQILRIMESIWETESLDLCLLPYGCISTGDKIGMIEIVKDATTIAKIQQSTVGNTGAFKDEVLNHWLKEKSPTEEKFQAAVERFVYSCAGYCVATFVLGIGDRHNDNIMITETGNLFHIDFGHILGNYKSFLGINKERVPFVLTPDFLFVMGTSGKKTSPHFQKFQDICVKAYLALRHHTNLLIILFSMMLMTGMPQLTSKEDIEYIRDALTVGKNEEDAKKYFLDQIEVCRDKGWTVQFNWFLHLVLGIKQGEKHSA
SMILES,IC50 (PI3K γ),IC50 (PI3K β),IC50 (PI3K α),IC50 (PI3K δ)
C[C@H](NC(=O)c1c(N)nn2cccnc12)c1cc2cccc(CNCC3CCCO3)c2c(=O)n1-c1ccccc1 (some centres unmarked) [Compound 229],1 to 10 µM,> 10 µM,> 10 µM,1 to 10 µM
C[C@H](NC(=O)c1c(N)nn2cccnc12)c1cc2cccc(CN(C)C)c2c(=O)n1-c1ccccc1 [Compound 231],> 10 µM,> 10 µM,> 10 µM,< 0.1 µM
C[C@H](NC(=O)c1nc(-c2cccc(NS(C)(=O)=O)c2)cnc1N)c1cc2cccc(N3CCOCC3)c2c(=O)n1-c1ccccc1 [Compound 263],1 to 10 µM,> 10 µM,> 10 µM,> 10 µM
C[C@H](NC(=O)c1c(N)nn2cccnc12)c1nn2ccc(Cl)c2c(=O)n1-c1ccccc1 [Compound 286],> 10 µM,> 10 µM,> 10 µM,> 10 µM
CNCc1cccc2cc([C@H](C)NC(=O)c3c(N)nn4cccnc34)n(-c3ccccc3)c(=O)c12 [Compound 230],> 10 µM,> 10 µM,> 10 µM,1 to 10 µM
C[C@H](NC(=O)c1nccnc1N)c1nc2cccc(Cl)c2c(=O)n1-c1ccccc1 [Compound 289],0.1 to 1 µM,1 to 10 µM,> 10 µM,< 0.1 µM
COc1cc(-c2cccc3cc([C@H](C)NC(=O)c4c(N)nn5cccnc45)n(C4CCCCC4)c(=O)c23)ccn1 [Compound 233],1 to 10 µM,> 10 µM,> 10 µM,> 10 µM
COC(=O)c1ncsc1-c1cccc2cc([C@H](C)NC(=O)c3c(N)nn4cccnc34)n(-c3ccccc3)c(=O)c12 [Compound 248],1 to 10 µM,> 10 µM,> 10 µM,> 10 µM
COc1ccc(-c2cnc(N)c(C(=O)N[C@@H](C)c3cc4cccc(Cl)c4c(=O)n3-c3ccccc3)n2)cc1F [Compound 94],1 to 10 µM,> 10 µM,> 10 µM,1 to 10 µM
C[C@H](NC(=O)c1c(N)nn2cccnc12)c1cc2cccc(NC3CCCCC3)c2c(=O)n1-c1ccccc1 [Compound 265],> 10 µM,> 10 µM,> 10 µM,> 10 µM
Cc1cnc(C(=O)N[C@@H](C)c2c(Br)c3cccc(Cl)c3c(=O)n2-c2ccccc2)c(N)n1 [Compound 288],1 to 10 µM,> 10 µM,> 10 µM,1 to 10 µM
C[C@H](NC(=O)c1c(N)nn2cccnc12)c1cc2cccc(Cl)c2c(=O)n1CCNCCO [Compound 243],1 to 10 µM,< 0.1 µM,1 to 10 µM,0.1 to 1 µM
CNCCn1c([C@H](C)NC(=O)c2c(N)nn3cccnc23)cc2cccc(Cl)c2c1=O [Compound 241],1 to 10 µM,< 0.1 µM,1 to 10 µM,< 0.1 µM
C[C@H](NC(=O)c1nc(-c2cccc(S(=O)(=O)N3CCOCC3)c2)cnc1N)c1cc2cccc(Cl)c2c(=O)n1-c1ccccc1 [Compound 95],> 10 µM,> 10 µM,> 10 µM,> 10 µM
Nc1nn2cccnc2c1C(=O)NCc1cc2cccc(Cl)c2c(=O)n1-c1ccccc1 [Compound 274],> 10 µM,> 10 µM,> 10 µM,> 10 µM
COc1cccc(-c2cnc(N)c(C(=O)N[C@@H](C)c3cc4cccc(Cl)c4c(=O)n3-c3ccccc3)n2)c1 [Compound 105],> 10 µM,> 10 µM,> 10 µM,> 10 µM
C[C@H](NC(=O)c1nc(-c2cccc(S(=O)(=O)N3CCN(C)CC3)c2)cnc1N)c1cc2cccc(Cl)c2c(=O)n1-c1ccccc1 [Compound 100],1 to 10 µM,1 to 10 µM,1 to 10 µM,1 to 10 µM
Nc1nn2cccnc2c1C(=O)N1CCC[C@H]1c1cc2cccc(Cl)c2c(=O)n1-c1ccccc1 [Compound 147],1 to 10 µM,1 to 10 µM,> 10 µM,> 10 µM
C[C@H](NC(=O)c1c(N)oc2cccnc12)c1cc2cccc(Cl)c2c(=O)n1-c1ccccc1 [Compound 298],1 to 10 µM,1 to 10 µM,> 10 µM,1 to 10 µM

SMILES,IC50 (PI3K γ),IC50 (PI3K β),IC50 (PI3K α),IC50 (PI3K δ)
COc1cc(-c2csc3cc([C@H](C)NC(=O)c4c(N)nn5cccnc45)n(-c4ccccc4)c(=O)c23)ccn1 [Compound 213],> 10 µM,> 10 µM,> 10 µM,> 10 µM
C[C@H](NC(=O)c1c(N)nn2c1NCCC2)c1cc2cccc(Cl)c2c(=O)n1-c1ccccc1 [Compound 307],> 10 µM,> 10 µM,> 10 µM,> 10 µM
C[C@H](NC(=O)c1c(N)nn2cccnc12)c1cc2cccc(/C=C/c3ccccc3)c2c(=O)n1-c1ccccc1 [Compound 199],> 10 µM,> 10 µM,> 10 µM,> 10 µM
C[C@H](NC(=O)c1c(N)nn2cccnc12)c1cc2cccc(Cl)c2c(=O)n1CC(=O)N(C)C [Compound 296],> 10 µM,1 to 10 µM,> 10 µM,> 10 µM
C[C@H](NC(=O)c1c(N)nn2cccnc12)c1cc2cccc(N3CCN(C)CC3)c2c(=O)n1-c1ccccc1 [Compound 264],> 10 µM,> 10 µM,> 10 µM,> 10 µM
C[C@H](NC(=O)c1c(N)nn2cccnc12)c1nn2ccc(-c3cnn(C)c3)c2c(=O)n1-c1ccccc1 [Compound 287],> 10 µM,> 10 µM,> 10 µM,> 10 µM
CC(C)Nc1cccc2cc([C@H](C)NC(=O)c3c(N)nn4cccnc34)n(-c3ccccc3)c(=O)c12 [Compound 268],> 10 µM,> 10 µM,> 10 µM,> 10 µM
COc1ncc(-c2cccc3cc([C@H](C)NC(=O)c4c(N)nn5cccnc45)n(-c4ccccc4)c(=O)c23)s1 [Compound 246],0.1 to 1 µM,> 10 µM,> 10 µM,1 to 10 µM
CC(=O)N(C)Cc1cccc2cc([C@H](C)NC(=O)c3c(N)nn4cccnc34)n(-c3ccccc3)c(=O)c12 [Compound 232],> 10 µM,> 10 µM,> 10 µM,< 0.1 µM
COc1cccc2c(C)c([C@H](C)NC(=O)c3c(N)nn4cccnc34)n(-c3ccccc3)c(=O)c12 [Compound 261],0.1 to 1 µM,> 10 µM,> 10 µM,1 to 10 µM
Nc1nccnc1C(=O)N1CCC[C@H]1c1cc2cccc(Cl)c2c(=O)n1-c1ccccc1 [Compound 148],> 10 µM,> 10 µM,> 10 µM,1 to 10 µM
CC(C)c1ccnc2c(C(=O)N[C@@H](C)c3cc4cccc(Cl)c4c(=O)n3-c3ccccc3)c(N)nn12 [Compound 177],> 10 µM,> 10 µM,> 10 µM,> 10 µM
C[C@H](NC(=O)c1cc(-c2cccc(NS(C)(=O)=O)c2)cnc1N)c1cc2cccc(Cl)c2c(=O)n1-c1ccccc1 [Compound 306],> 10 µM,> 10 µM,> 10 µM,> 10 µM
C[C@H](NC(=O)c1c(N)nn2cccnc12)C1Cc2cccc(F)c2C(=O)N1c1ccccc1 (some centres unmarked) [Compound 304],> 10 µM,> 10 µM,> 10 µM,> 10 µM
C[C@H](NC(=O)c1c(N)nn2cccnc12)c1cc2cccc(OC(F)(F)F)c2c(=O)n1-c1ccccc1 [Compound 302],1 to 10 µM,> 10 µM,> 10 µM,1 to 10 µM
COc1cccc2c(Br)c([C@H](C)NC(=O)c3c(N)nn4cccnc34)n(-c3ccccc3)c(=O)c12 [Compound 256],0.1 to 1 µM,> 10 µM,> 10 µM,1 to 10 µM
C[C@H](NC(=O)c1c(N)nn2cccnc12)c1cc2cccc(/C=N\O)c2c(=O)n1-c1ccccc1 [Compound 226],0.1 to 1 µM,> 10 µM,> 10 µM,1 to 10 µM
C[C@H](NC(=O)c1c(N)nn2cccnc12)c1c(Br)c2cccc(F)c2c(=O)n1-c1ccccc1 [Compound 255],0.1 to 1 µM,1 to 10 µM,1 to 10 µM,1 to 10 µM
CC(=O)Nc1ncc(-c2cccc3cc([C@H](C)NC(=O)c4c(N)nn5cccnc45)n(-c4ccccc4)c(=O)c23)s1 [Compound 247],0.1 to 1 µM,> 10 µM,1 to 10 µM,1 to 10 µM
